According to patent US7199113B2, “Pharmaceutically active compounds and methods of use thereof” (priority 1998, dated 2007):

Assays:
[1] = molecular target: T1, TF (243 form lipidated or 219 form unlipidated) (Homo sapiens, UniProt P13726); assay: Isothermal calorimetry analysis of binding to TF
T1 construct: made in house; host or cells: E. coli (stated for the 243-aa form)

[2] = molecular target: T2, human recombinant TF/VIIa complex (lipidated) (Homo sapiens, UniProt P13726); assay: TF/VIIa-dependent FX activation assay; type: biochemical; conditions: statement on FIG. 3
T2 construct: Truncated recombinant human tissue factor (e.g. composed of 243 amino acids) is expressed in E. coli; host or cells: E. coli (TF)
Protocol: A more particular example of the primary screening assay discussed previously is as follows. The assay is standard for measuring TF/VIIa-dependent factor X activation. […] In a more preferred embodiment, the primary screening preferably includes the following steps. • 1) admixing in a suitable assay solution about 0.1 nM of human recombinant TF/VIIa complex (lipidated), about 180 nM human FX, and between from about 0.5 μl to about 10 μl of at least one compound to be tested (optionally dissolved in an appropriate vehicle such as water or dimethylsulfoxide (DMSO)) and incubating the reaction at 37° C. for a few minutes up to about an hour or more, • 2) contacting the solution with a suitable chelating agent such as ethylenediaminietetra acetic acid (EDTA) to reduce or stop factor X activation, • 3) contacting the solution with a detectable amount of a chromogenic substrate specific for FXa (e.g., Spectrozyme FXa or S-2765) and incubating same at 37° C.; and • 4) detecting chromophore produced in the solution as being indicative of the factor X activation.
The primary screening for compounds that inhibit tissue factor/factor VIIa (TF/VIIa) is based on TF/VIIa-dependent FX activation assay (See flow chart in FIG. 1 of the drawings). In this assay, the ability of TF/VIIa complex to activate FX is determined in two discontinuous stages. […] In the second stage (FXa activity assay), EDTA is added at indicated times to the FX activation mixture to chelate calcium, thus leading to the termination of FX→FXa conversion. Calcium is required for TF/VIIa activity. The activity of FXa is then measured by FXa-specific chromogenic substrates such as S-2222, S-2765, or Spectrozyme FXa. In the primary screening, compounds from a previously prepared chemical library are first tested at relatively high concentrations (˜0.833 mM) in TF/VIIa-dependent FX activation assay to identify hits of potential TF pathway antagonists (see FIG. 1). However, it is evident that the inhibition of TF/VIIa-dependent FX activation by a compound in this enzyme-coupled assay can be attributed to effects of the compound on TF/VIIa and/or FXa activities. Thus, secondary screening tests are designed to determine how inhibition takes place and the inhibition mechanism. In secondary screening experiments, effects of those compounds identified from primary screening are tested on catalytic activities of factor VIIa (FVIIa), factor IXa (FIXa), factor Xa (FXa), thrombin, Russell's viper venom (RVV), and trypsin.
Primary screening was done in duplicate in 96-well plates using the TF/VIIa-dependent FX activation assay. All compounds to be screened were dissolved in dimethyl sulfoxide (DMSO), other reagents were prepared or diluted in 25 mM HEPES-NaOH, 5 mM CaCl2, 150 mM NaCl, 0.1% BSA, pH 7.5. For assays where TF was used, purified human recombinant TF (100 nM) was first lipidated with phosphatidylcholine (0.07 mg/ml) and phosphatidylserine (0.03 mg/ml) in 50 mM Tris-HCl, pH 7.5, 0.1% bovine serum albumin (BSA) for 30 minutes at 37° C. A stock solution of TF/VIIa complex was then prepared by combining equal volumes of 100 nM lipidated TF and 100 nM FVIIa The complex was incubated at 37° C. for 30 minutes and then was aliquoted and stored at −70° C. for future uses.
For screening assays, 5 μl of each compound (about 10 mM in DMSO) or DMSO were placed in each well of a 96-well plate, followed by adding 45 μl of TF/VIIa complex (0.1 nM). The components in each well were mixed either with pipette tips or by shaking the plate on a Lab-Line titer plate shaker for 30 seconds. After 15 minutes incubation of the plate at a 37° C., 10 μl of human FX (180 nM) was added to each well and mixed as above. The plate was then incubated at 37° C. for 3 to 15 minutes, followed by addition of 10 μl of EDTA (400 mM in 144 mM HEPES, 864 mM NaCl, 0.576% BSA, pH adjusted to 7.5) to each well to terminate FX activation. […]

TF/VIIa complex = molecular target: T3, TF/VIIa complex (Homo sapiens, UniProt P13726); assay: TF/VIIa-dependent FIX activation assay; type: biochemical; conditions: statement on FIG. 3
T3 construct: Truncated recombinant human tissue factor (e.g. composed of 243 amino acids) is expressed in E. coli; host or cells: E. coli (TF)
Protocol: In a more particular embodiment, the standard assay preferably includes the following steps: • 1) admixing in a suitable assay solution about 0.7 nM TF/VIIa complex with 300 nM factor IX and 1000 nM factor X, and from between about 0.5 μl to about 10 μl of at least one compound to be tested (optionally dissolved in an appropriate vehicle such as water or dimethylsulfoxide (DMSO)) and incubating the solution at 37° C. from between about a few minutes up to about an hour under conditions suitable for forming FIXa and FXa; • 2) contacting the solution with a suitable chelating agent such as EDTA to stop FIX activation; • 3) contacting the solution with a chromogenic substrate specific for the FXa (e.g., Spectrozyme FXa) and incubating same at 37° C.; and • 4) detecting chromophore in the solution as being indicative of the factor IX activation.
TF/VIIa is not only able to activate FX, but is also able to convert FIX to FIXa. To examine whether the two antagonists 1 and 2 were able to block FIX activation catalyzed by TF/VIIa. FIX activation experiment was conducted. To each well of a 96-well plate, 5 μl of diluted DMSO or compound was added, followed by 45 μl of TF/VIIa (0.67 nM). After mixing and incubating for 15 minutes at 37° C., 10 μl of FIX (300 nM) was added and incubated for 10 minutes at 37° C. 10 μl of EDTA ([…] in 144 mM HEPES, […], 0.576% BSA, pH adjusted to 7.5) was added, followed by addition of 10 μl of FX (1000 nM), 10 μl of polylysine, and 10 μl of Spectrozyme FXa (6 mM). After 3 hour incubation at 37° C., absorbance at 405 nm was measured following addition of 20 μl of 50% acetic acid. The percent inhibition of TF/VIIa-dependent FIX activation was calculated from OD405 nm values in the absence and presence of a compound.

T3 sequence (P13726 33-275 limits assumed): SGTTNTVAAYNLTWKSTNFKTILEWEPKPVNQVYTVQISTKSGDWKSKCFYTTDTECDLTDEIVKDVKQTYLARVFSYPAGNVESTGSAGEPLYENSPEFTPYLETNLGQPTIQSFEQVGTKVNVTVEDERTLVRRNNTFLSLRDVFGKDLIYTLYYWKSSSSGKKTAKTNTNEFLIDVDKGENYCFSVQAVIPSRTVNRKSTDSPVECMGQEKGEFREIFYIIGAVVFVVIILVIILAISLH
T3 sequence (P08709 61-212 partner limits assumed): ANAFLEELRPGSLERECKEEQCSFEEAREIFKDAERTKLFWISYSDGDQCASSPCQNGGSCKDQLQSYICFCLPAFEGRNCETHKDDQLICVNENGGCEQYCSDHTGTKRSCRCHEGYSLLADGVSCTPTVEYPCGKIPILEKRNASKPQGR
T3 sequence (P08709 213-466 partner limits assumed): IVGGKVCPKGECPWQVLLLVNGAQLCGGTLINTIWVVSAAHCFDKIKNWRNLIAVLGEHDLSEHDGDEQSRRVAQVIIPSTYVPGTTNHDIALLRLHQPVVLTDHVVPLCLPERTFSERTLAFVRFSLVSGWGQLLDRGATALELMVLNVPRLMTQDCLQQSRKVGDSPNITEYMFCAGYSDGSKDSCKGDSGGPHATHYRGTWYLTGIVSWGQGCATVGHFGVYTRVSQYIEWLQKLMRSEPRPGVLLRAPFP
T2 sequence (P13726 33-275 limits assumed): as the sequence (P13726 33-275 limits assumed) above
T2 sequence (P08709 61-212 partner limits assumed): as the sequence (P08709 61-212 partner limits assumed) above
T2 sequence (P08709 213-466 partner limits assumed): as the sequence (P08709 213-466 partner limits assumed) above
T1 sequence (P13726 33-251): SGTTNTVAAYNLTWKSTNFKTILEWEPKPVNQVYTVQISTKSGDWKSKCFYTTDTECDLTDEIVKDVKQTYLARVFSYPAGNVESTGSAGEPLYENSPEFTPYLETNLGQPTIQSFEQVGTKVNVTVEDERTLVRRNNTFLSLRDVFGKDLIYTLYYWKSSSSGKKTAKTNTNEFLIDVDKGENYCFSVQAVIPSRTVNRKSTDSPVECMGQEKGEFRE

## 1-(bisphosponate)-2-amino(3-hydroxyphenyl)ethyl [Compound 1]
[1]
  binding to TF: directly observed

## Nc1ccc(NCC(P(=O)(O)O)P(=O)(O)O)cc1 [Compound 3]
[2]
  blocking activity in standard assay for TF/VIIa-dependent factor X activation: good blocking activity
TF/VIIa complex
  blocking activity in standard assay for TF/VIIa-dependent factor IX activation: good blocking activity

## Cc1ccc(NCC(P(=O)(O)O)P(=O)(O)O)cc1 [Compound 4]
[2]
  blocking activity in standard assay for TF/VIIa-dependent factor X activation: good blocking activity
TF/VIIa complex
  blocking activity in standard assay for TF/VIIa-dependent factor IX activation: good blocking activity

## O=P(O)(O)C(COc1ccccc1)P(=O)(O)O [Compound 6]
[2]
  blocking activity in standard assay for TF/VIIa-dependent factor X activation: good blocking activity
TF/VIIa complex
  blocking activity in standard assay for TF/VIIa-dependent factor IX activation: good blocking activity

## NCCCC(O)(P(=O)(O)O)P(=O)(O)O [Fosamax, reference compound]
[2]
  blocking activity in standard assay for TF/VIIa-dependent factor X activation: good blocking activity
TF/VIIa complex
  blocking activity in standard assay for TF/VIIa-dependent factor IX activation: good blocking activity
